In US20090118332A1, “Therapeutic Agents - 551” (AstraZeneca AB, priority 2006, published 2009):

Molecular target: T1, human Fatty Acid Synthase (Homo sapiens, UniProt P49327)
T1 construct: made in house
Test: Human FAS enzyme assay (decrease in NADPH fluorescence)
Assay type: biochemical
Conditions: for inhibition at 100 µM: % inhibition at a concentration of 100 μmolar; for IC50, inhibition of human Fatty Acid Synthase: FAS enzyme assay, IC50 from fitted sigmoid curves
Outline: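 In-house human FAS was preincubated with compound and NADPH for 15 min at room temperature in 0.1 M Tris pH 7.5 with EDTA, glutathione and BSA. Malonyl CoA and acetyl CoA (500 μM and 150 μM in the added mix) were then added for 60 min. IC50 came from time-zero-subtracted NADPH fluorescence (340/460 nm).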

T1 sequence (P49327 whole entry): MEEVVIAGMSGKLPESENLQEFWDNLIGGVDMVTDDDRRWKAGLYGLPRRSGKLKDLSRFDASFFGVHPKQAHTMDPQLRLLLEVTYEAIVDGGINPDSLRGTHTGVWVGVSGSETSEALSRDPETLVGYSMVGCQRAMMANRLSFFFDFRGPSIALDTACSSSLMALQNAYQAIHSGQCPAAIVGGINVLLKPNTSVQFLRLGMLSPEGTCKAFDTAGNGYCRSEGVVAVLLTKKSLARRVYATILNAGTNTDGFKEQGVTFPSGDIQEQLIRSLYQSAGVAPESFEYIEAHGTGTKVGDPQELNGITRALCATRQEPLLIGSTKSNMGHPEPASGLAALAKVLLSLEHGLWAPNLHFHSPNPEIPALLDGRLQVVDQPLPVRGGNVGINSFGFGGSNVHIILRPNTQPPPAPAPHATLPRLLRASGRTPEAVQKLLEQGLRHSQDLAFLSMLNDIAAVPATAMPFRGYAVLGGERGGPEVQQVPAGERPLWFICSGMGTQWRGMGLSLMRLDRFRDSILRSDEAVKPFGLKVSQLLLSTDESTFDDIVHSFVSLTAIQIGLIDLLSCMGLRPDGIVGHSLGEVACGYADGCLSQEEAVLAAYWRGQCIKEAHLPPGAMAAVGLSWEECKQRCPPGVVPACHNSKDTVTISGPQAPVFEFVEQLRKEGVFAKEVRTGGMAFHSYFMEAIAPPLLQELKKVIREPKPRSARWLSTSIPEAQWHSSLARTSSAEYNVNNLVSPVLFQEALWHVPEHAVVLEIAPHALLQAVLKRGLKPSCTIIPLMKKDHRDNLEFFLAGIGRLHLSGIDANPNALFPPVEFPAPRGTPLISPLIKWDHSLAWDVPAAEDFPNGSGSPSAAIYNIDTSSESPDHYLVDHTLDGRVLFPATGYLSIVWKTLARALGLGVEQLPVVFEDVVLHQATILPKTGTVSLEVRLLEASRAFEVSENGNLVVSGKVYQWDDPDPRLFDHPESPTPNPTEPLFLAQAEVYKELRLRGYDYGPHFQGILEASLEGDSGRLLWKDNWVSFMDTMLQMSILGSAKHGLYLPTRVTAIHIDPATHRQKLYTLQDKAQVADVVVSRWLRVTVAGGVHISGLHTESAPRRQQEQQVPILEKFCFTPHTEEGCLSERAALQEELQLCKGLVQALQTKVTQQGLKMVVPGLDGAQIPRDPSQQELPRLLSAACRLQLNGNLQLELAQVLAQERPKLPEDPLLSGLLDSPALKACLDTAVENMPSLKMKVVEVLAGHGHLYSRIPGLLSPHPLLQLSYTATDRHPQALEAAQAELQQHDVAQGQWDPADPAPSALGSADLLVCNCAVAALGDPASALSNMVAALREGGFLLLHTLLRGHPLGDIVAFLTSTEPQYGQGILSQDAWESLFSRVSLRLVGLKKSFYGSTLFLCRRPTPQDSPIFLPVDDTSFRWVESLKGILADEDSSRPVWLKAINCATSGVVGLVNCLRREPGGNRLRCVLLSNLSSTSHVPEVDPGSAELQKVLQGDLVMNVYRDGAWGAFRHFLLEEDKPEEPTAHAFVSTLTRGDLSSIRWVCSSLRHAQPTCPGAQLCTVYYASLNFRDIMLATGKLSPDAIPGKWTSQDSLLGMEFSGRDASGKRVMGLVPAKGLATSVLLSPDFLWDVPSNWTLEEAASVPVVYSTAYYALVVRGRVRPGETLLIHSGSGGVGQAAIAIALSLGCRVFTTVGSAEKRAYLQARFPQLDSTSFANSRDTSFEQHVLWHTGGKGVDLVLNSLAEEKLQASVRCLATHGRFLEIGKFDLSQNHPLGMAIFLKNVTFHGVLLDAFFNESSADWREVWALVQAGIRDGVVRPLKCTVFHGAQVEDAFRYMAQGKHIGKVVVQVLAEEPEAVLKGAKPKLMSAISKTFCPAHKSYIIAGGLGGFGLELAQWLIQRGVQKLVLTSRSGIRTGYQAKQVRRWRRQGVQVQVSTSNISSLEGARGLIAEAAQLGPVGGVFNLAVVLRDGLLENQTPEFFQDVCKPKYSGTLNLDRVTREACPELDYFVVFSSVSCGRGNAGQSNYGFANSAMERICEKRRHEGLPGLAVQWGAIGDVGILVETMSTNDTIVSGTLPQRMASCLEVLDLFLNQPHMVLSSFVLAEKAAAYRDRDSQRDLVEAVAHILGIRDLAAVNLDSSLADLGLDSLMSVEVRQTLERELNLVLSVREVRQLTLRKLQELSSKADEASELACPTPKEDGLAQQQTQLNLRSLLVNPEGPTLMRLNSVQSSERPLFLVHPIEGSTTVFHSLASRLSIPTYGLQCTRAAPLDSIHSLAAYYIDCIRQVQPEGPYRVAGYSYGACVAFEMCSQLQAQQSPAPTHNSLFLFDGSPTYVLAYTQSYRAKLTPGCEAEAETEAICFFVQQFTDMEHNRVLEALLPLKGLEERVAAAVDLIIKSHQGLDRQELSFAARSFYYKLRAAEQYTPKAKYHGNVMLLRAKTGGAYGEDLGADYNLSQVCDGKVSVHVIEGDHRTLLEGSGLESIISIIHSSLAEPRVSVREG

Compound | inhibition at 100 µM [%] | IC50, inhibition of human Fatty Acid Synthase
Cc1ccc(C(=O)N2CCC(c3ccc(C#N)cc3)CC2)cc1NC(=O)N[C@H]1CCCC[C@H]1NS(C)(=O)=O (relative stereo) [Example 307, 1-[5-[4-(4-cyanophenyl)piperidine-1-carbonyl]-2-methyl-phenyl]-3-[(cis)-2-methanesulfonamidocyclohexyl]urea] | 96.1 | –
Cc1ccc(C(=O)N2CCC(c3ccc(C#N)cc3)CC2)cc1NC(=O)N1CC(N)C1 [Example 306, 3-amino-N-[5-[4-(4-cyanophenyl)piperidine-1-carbonyl]-2-methyl-phenyl]azetidine-1-carboxamide] | 84.7 | –
COCCOCCCNC(=O)Nc1cc(C(=O)N2CCC(c3ccc(C#N)cc3)CC2)ccc1C [Example 161, 1-[5-[4-(4-cyanophenyl)piperidine-1-carbonyl]-2-methyl-phenyl]-3-[3-(2-methoxyethoxy)propyl]urea] | 93.7 | –
CC(C)NC(=O)Nc1cc(C(=O)N2CCC(c3ccc(C#N)cc3)CC2)ccc1C#N [Example 22, 3-[2-cyano-5-[4-(4-cyanophenyl)piperidine-1-carbonyl]phenyl]-1-propan-2-yl-urea] | 86.8 | –
Cc1ccc(C(=O)N2CCC(c3ccc(C#N)cc3)CC2)cc1NC(=O)NCCCNS(C)(=O)=O [Example 215, 1-[5-[4-(4-cyanophenyl)piperidine-1-carbonyl]-2-methyl-phenyl]-3-(3-methanesulfonamidopropyl)urea] | 100 | –
Cc1ccc(C(=O)N2CCC(c3ccc(C#N)cc3)CC2)cc1NC(=O)N(C)C [3-[5-[4-(4-cyanophenyl)piperidine-1-carbonyl]-2-methylphenyl]-1,1-dimethylurea] | – | do not have IC50s in the range of about 0.001 μM to about 30 μM
Cc1ccc(NC(=O)NC(C)C)cc1C(=O)N1CCC(c2ccc(C#N)cc2)CC1 [Example 404, 1-[3-[4-(4-cyanophenyl)piperidine-1-carbonyl]-4-methylphenyl]-3-propan-2-ylurea] | 76.5 | –
Cc1ccc(C(=O)N2CCC(c3ccc(C#N)cc3)CC2)cc1NC(=O)NCCCN(CCO)CCO [Example 141, 3-[3-(bis(2-hydroxyethyl)amino)propyl]-1-[5-[4-(4-cyanophenyl)piperidine-1-carbonyl]-2-methyl-phenyl]urea] | 82.1 | –
Cc1ccc(C(=O)N2CCC(c3ccc(C#N)cc3)CC2)cc1NC(=O)NC1CC1 [Example 225, 1-[5-[4-(4-cyanophenyl)piperidine-1-carbonyl]-2-methyl-phenyl]-3-cyclopropyl-urea] | 89.9 | –
CS(=O)(=O)c1ccc(C(=O)N2CCC(c3ccc(C#N)cc3)CC2)cc1NC(=O)NCc1ccccc1 [3-benzyl-1-[5-[4-(4-cyanophenyl)piperidine-1-carbonyl]-2-methylsulfonylphenyl]urea] | – | do not have IC50s in the range of about 0.001 μM to about 30 μM
Cc1ccc(C(=O)N2CCC(c3ccc(Cl)cc3)CC2)cc1NC(=O)NC(C)C [Example 359, 1-[5-[4-(4-chlorophenyl)piperidine-1-carbonyl]-2-methyl-phenyl]-3-propan-2-yl-urea] | 92.1 | –
CC(C)=CCNC(=O)Nc1cc(C(=O)N2CCC(c3ccc(C#N)cc3)CC2)ccc1C [Example 96, 1-[5-[4-(4-cyanophenyl)piperidine-1-carbonyl]-2-methyl-phenyl]-3-(3-methylbut-2-enyl)urea] | 103 | –
Cc1ccc(C(=O)N2CCC(c3ccc(C#N)cc3)CC2)cc1NC(=O)N[C@@H]1CCN(C(=O)OC(C)(C)C)C1 [Example 209, tert-butyl (3R)-3-[[5-[4-(4-cyanophenyl)piperidine-1-carbonyl]-2-methyl-phenyl]carbamoylamino]pyrrolidine-1-carboxylate] | 89.7 | –
Cc1ccc(C(=O)N2CCC(c3ccc(C#N)cc3)CC2)cc1NC(=O)NCCNS(=O)(=O)c1ccccc1 [Example 86, 3-[2-(benzenesulfonamido)ethyl]-1-[5-[4-(4-cyanophenyl)piperidine-1-carbonyl]-2-methyl-phenyl]urea] | 94 | –
CCOCCCNC(=O)Nc1ccc(C)c(C(=O)N2CCC(c3ccc(C#N)cc3)CC2)c1 [Example 416, 3-[3-[4-(4-cyanophenyl)piperidine-1-carbonyl]-4-methylphenyl]-1-(3-ethoxypropyl)urea] | 90.8 | –
Cc1ccc(C(=O)N2CCC(c3ccc(C#N)cc3)CC2)cc1NC(=O)NCCC(=O)N1CCOCC1 [Example 127, 1-[5-[4-(4-cyanophenyl)piperidine-1-carbonyl]-2-methyl-phenyl]-3-(3-morpholin-4-yl-3-oxo-propyl)urea] | 93 | –

More lines, main results first:

inhibition at 100 µM [%] | Compound | IC50, inhibition of human Fatty Acid Synthase
99.4 | COCCCCNC(=O)Nc1cc(C(=O)N2CCC(c3ccc(C#N)cc3)CC2)ccc1C [Example 252, 1-[5-[4-(4-cyanophenyl)piperidine-1-carbonyl]-2-methyl-phenyl]-3-(4-methoxybutyl)urea] | –
78.1 | Cc1ccc(NC(=O)N(C)Cc2ccccc2)cc1C(=O)N1CCC(c2ccc(C#N)cc2)CC1 [Example 24, 1-benzyl-3-[3-[4-(4-cyanophenyl)piperidine-1-carbonyl]-4-methyl-phenyl]-1-methyl-urea] | –
98.7 | Cc1ccc(C(=O)N2CCC(c3ccc(C#N)cc3)CC2)cc1NC(=O)NC1CCN(S(=O)(=O)N(C)C)CC1 [Example 285, 1-[5-[4-(4-cyanophenyl)piperidine-1-carbonyl]-2-methyl-phenyl]-3-[1-(dimethylsulfamoyl)-4-piperidyl]urea] | –
94.2 | Cc1ccc(C(=O)N2CCC(c3ccc(C#N)cc3)CC2)cc1NC(=O)NCC(C)(C)C [Example 71, 1-[5-[4-(4-cyanophenyl)piperidine-1-carbonyl]-2-methyl-phenyl]-3-(2,2-dimethylpropyl)urea] | –
96.2 | Cc1ccc(C(=O)N2CCC(c3ccc(C#N)cc3)CC2)cc1NC(=O)NCCNC(=O)c1cccn1C [Example 118, N-[2-[[5-[4-(4-cyanophenyl)piperidine-1-carbonyl]-2-methyl-phenyl]carbamoylamino]ethyl]-1-methyl-pyrrole-2-carboxamide] | –
91.9 | Cc1ccc(C(=O)N2CCC(c3ccc(C#N)cc3)CC2)cc1NC(=O)NC(C)c1ccc(S(C)(=O)=O)cc1 (stereo not shown) [Example 98, 1-[5-[4-(4-cyanophenyl)piperidine-1-carbonyl]-2-methyl-phenyl]-3-[1-(4-methylsulfonylphenyl)ethyl]urea] | –
83.9 | Cc1ccc(C(=O)N2CCC(c3ccc(C#N)cc3)CC2)cc1NC(=O)NC1CCCC1C(=O)O (stereo not shown) [Example 388, 2-[[5-[4-(4-cyanophenyl)piperidine-1-carbonyl]-2-methylphenyl]carbamoylamino]-cyclopentane-1-carboxylic acid] | –
89.6 | Cc1ccc(C(=O)N2CCC(c3ccc(C#N)cc3)CC2)cc1NC(=O)NCCNc1nc(N)nc(C)c1C [Example 94, 3-[2-[(2-amino-5,6-dimethyl-pyrimidin-4-yl)amino]ethyl]-1-[5-[4-(4-cyanophenyl)piperidine-1-carbonyl]-2-methyl-phenyl]urea] | –
101 | Cc1ccc(C(=O)N2CCC(c3ccc(C#N)cc3)CC2)cc1NC(=O)NCCCC(=O)OC(C)(C)C [Example 51, tert-butyl 4-[[5-[4-(4-cyanophenyl)piperidine-1-carbonyl]-2-methyl-phenyl]carbamoylamino]butanoate] | –
88.2 | Cc1ccc(C(=O)N2CCC(c3ccc(C#N)cc3)CC2)cc1NC(=O)NCCNC(=O)OCc1ccccc1 [Example 81, Benzyl N-[2-[[5-[4-(4-cyanophenyl)piperidine-1-carbonyl]-2-methyl-phenyl]carbamoylamino]ethyl]carbamate] | –
89.8 | Cc1ccc(C(=O)N2CCC(c3ccc(C#N)cc3)CC2)cc1NC(=O)NCCCN1CCCC1=O [Example 131, 1-[5-[4-(4-cyanophenyl)piperidine-1-carbonyl]-2-methyl-phenyl]-3-[3-(2-oxopyrrolidin-1-yl)propyl]urea] | –
78.8 | Cc1ccc(NC(=O)NC2CCCC2)cc1C(=O)N1CCC(c2ccc(C#N)cc2)CC1 [Example 21, 1-[3-[4-(4-cyanophenyl)piperidine-1-carbonyl]-4-methyl-phenyl]-3-cyclopentyl-urea] | –
79.1 | Cc1ccc(C(=O)N2CCC(O)(c3ccc(Br)cc3)CC2)cc1NC(=O)NC(C)C [Example 39, 1-[5-[4-(4-bromophenyl)-4-hydroxy-piperidine-1-carbonyl]-2-methyl-phenyl]-3-propan-2-yl-urea] | –
92.2 | CSCCNC(=O)Nc1cc(C(=O)N2CCC(c3ccc(C#N)cc3)CC2)ccc1C [Example 156, 1-[5-[4-(4-cyanophenyl)piperidine-1-carbonyl]-2-methyl-phenyl]-3-(2-methylsulfanylethyl)urea] | –
67.3 | C#CCNC(=O)Nc1ccc(C)c(C(=O)N2CCC(c3ccc(C#N)cc3)CC2)c1 [Example 418, 1-[3-[4-(4-cyanophenyl)piperidine-1-carbonyl]-4-methylphenyl]-3-prop-2-ynylurea] | –
88.3 | C#CCNC(=O)Nc1cc(C(=O)N2CCC(c3ccc(C#N)cc3)CC2)ccc1C [Example 43, 1-[5-[4-(4-cyanophenyl)piperidine-1-carbonyl]-2-methyl-phenyl]-3-prop-2-ynyl-urea] | –
99.4 | Cc1ccc(C(=O)N2CCC(c3ccc(C#N)cc3)CC2)cc1NC(=O)NC1CCCN(C(=O)OC(C)(C)C)C1 (stereo not shown) [Example 279, tert-butyl 3-[[5-[4-(4-cyanophenyl)piperidine-1-carbonyl]-2-methyl-phenyl]carbamoylamino]piperidine-1-carboxylate] | –
87.6 | Cc1ccc(C(=O)N2CCC(c3ccc(C#N)cc3)CC2)cc1NC(=O)NC(C)c1ccc(F)cc1 (stereo not shown) [Example 88, 1-[5-[4-(4-cyanophenyl)piperidine-1-carbonyl]-2-methyl-phenyl]-3-[1-(4-fluorophenyl)ethyl]urea] | –
